Article PMC6761804 (ACS Omega, 2019)

Tested on: colorectal tumor of Apc^min/+ genetically engineered CRC mouse
Assay type: in vivo, Apc^min/+ mice
Conditions: i.v. about 3.7 MBq, PET/CT after 1 h (Figure S4)

SMILES: OC[C@H]1OC(O)[C@H](F)[C@@H](O)[C@@H]1O (stereo partly shown) [^18F-FDG, ^18F-Fluorodeoxyglucose, reference compound]
- Tumor enrichment in PET/CT (in words): did not show ideal tumor enrichment
